“And” between values parts separate entries of the source, which are not always exact repeats. Equal values may be shown once. Read-outs that look alike come from different tables or passages of the source.
How the values were obtained:
[1] = target: SARS-CoV-2 NSP3 macrodomain (Mac1) (Severe acute respiratory syndrome coronavirus 2, UniProt P0DTD1); test: biochemical; format: binding; details: for Hill slope: HTRF dose-response fit, Mac1; for SARS CoV-2 macrodomain HTRF assay: Hillslope: dose-response fit
[2] = target: SARS-CoV-2 NSP3 macrodomain (Mac1), P43 crystal form (Severe acute respiratory syndrome coronavirus 2, UniProt P0DTD1); format: binding; details: for 1-BDC: PanDDA background density correction; for X-ray crystal structure: TRUE = crystal structure with ligand determined; for Total number of conformations: ligand conformations modeled in Mac1 crystal structure; for Binding site: site of Mac1 where ligand bound in crystal structure; for X-ray crystallography: Binding site: site where the ligand is bound in the X-ray crystal structure; for Comment: comment on ligand modeling / Phe132 loop density
[3] = crystal soak concentration 3 mM, P43 crystals
[4] = crystal soak concentration 3 mM
[5] = occupancy estimate from PanDDA 1-BDC
[6] = Single dose, concentration 200 μM, read-out: SARS CoV-2 macrodomain HTRF assay: Average % competition
[7] = preliminary screen, compound at 200 μM, mean of 3-4 technical replicates, read-out: % competition in HTRF assay
[8] = crystal soak, soak concentration 10 mM
[9] = crystal soak, soak concentration 10 mM, TRUE = ligand hit
[10] = occupancy estimate from PanDDA BDC
[11] = crystal soak concentration 20 mM
[12] = crystal soak concentration 20 mM, P43 crystals

With `Cc1ccc2c(c1)CC[C@@H](C(=O)Nc1nnc3n1CCCC3)O2` [AVI-329] the Average % competition ([1]; Single dose, 200 μM, mean of three technical replicates) was 9%, the “PanDDA run, DMSO background map: 1-BDC” value ([2]; event 1) was 0.17 and the 1-BDC [2] was 0.07. For the same molecule, the X-ray crystal structure [2] was “TRUE”, the “Pandda run, overall: Hit” value [2, 3] was “TRUE” and the “Pandda run, overall: Modeled” value [2, 3] was “TRUE”. The “Pandda run, overall: Modeling comment” value [2, 3] was “Duplicate, not modeled”, the “PanDDA run, DMSO background map: Hit” value [2, 4] was “TRUE” and the “PanDDA run, DMSO background map: Modeled” value [2, 4] was “TRUE”. For the same molecule, the “PanDDA run, DMSO background map: 1-BDC” value ([2]; crystal soak concentration 3 mM, event 1) was 0.08 and 0.07, the “Total number of conformations” value [2] was 1 and the “2*(1-BDC) (%)” value [2, 5] was 14%. For the same molecule, the Binding site [2] was “Distal”.
In the case of `O=C(O)C(F)(F)F.OC1([C@H]2CCCN2c2ncnc3[nH]ccc23)Cc2ccccc2C1` [AVI-3731], the Hill slope [1] is reported as 1.1, the inhibition at 200 µM [1, 6] is reported as 100% and the “SARS CoV-2 macrodomain HTRF assay: Hillslope” value [1] is reported as 1.1. For the same molecule, the inhibition at 200 µM [1, 7] was 100%, the 1-BDC [2] was 0.2 and the “Pandda run, overall: Modeled” value [2, 8] was “TRUE”. For the same molecule, the “Pandda run, overall: Hit” value [2, 9] was “TRUE”, the “Total number of conformations” value [2] was 1 and the “2*(1-BDC) (%)” value [2, 5] was 40%. The “X-ray crystallography: Binding site” value [2] was “Adenosine”, the “PanDDA run, DMSO background map: 1-BDC” value ([2]; soak concentration 10 mM) was 0.2 and the “PanDDA run, DMSO background map: Hit” value ([2]; soak concentration 10 mM) was “TRUE”.
`O=S1(=O)CCCC(O)(CNc2ncnc3[nH]ccc23)C1` (stereo not shown) [AVI-4317] was tested, and the Hill slope [1] was 1.2, the “SARS CoV-2 macrodomain HTRF assay: Hillslope” value [1] was 1.2 and the “Occupancy difference (refined_occupancy - 2*(1-BDC))” value (“Occupancy difference” for short) [2] was 14. The “Refined ligand occupancy (%)” value [2] was 100%, the “PanDDA run, DMSO background map: 1-BDC” value ([2]; event 1) was 0.43 and 0.45 and the 1-BDC [2] was 0.43. For the same molecule, the Comment [2] was “High occupancy, use manual refinement, DMSO”, the “Total number of conformations” value [2] was 1 and the “2*(1-BDC) (%)” value [2, 10] was 86%. For the same molecule, the “X-ray crystallography: Binding site” value [2] was “Adenosine”.
For `OC[C@@H]1C[C@@H]2CCC[C@@H]2N1c1ncnc2[nH]ccc12` [AVI-3720], the Hill slope [1] was 1.2, the inhibition at 200 µM [1, 6] was 92% and the “SARS CoV-2 macrodomain HTRF assay: Hillslope” value [1] was 1.2. The inhibition at 200 µM [1, 7] was 92%, the 1-BDC [2] was 0.29 and the “Phe132 loop open state” value ([2]; TRUE = open state of Phe132 loop modeled) was “TRUE”. For the same molecule, the “Pandda run, overall: Modeled” value [2, 8] was “TRUE”, the “Pandda run, overall: Hit” value [2, 9] was “TRUE” and the “Total number of conformations” value [2] was 1. The “2*(1-BDC) (%)” value [2, 5] was 58%, the “X-ray crystallography: Binding site” value [2] was “Adenosine” and the “PanDDA run, DMSO background map: 1-BDC” value ([2]; soak concentration 10 mM) was 0.29. For the same molecule, the “PanDDA run, DMSO background map: Hit” value ([2]; soak concentration 10 mM) was “TRUE”.
`CC(C)(C)C1CCCN1c1ncnc2[nH]ccc12` (stereo not shown) [AVI-6000] was tested, and the IC50 ([1]; dose-response, read-out: SARS CoV-2 macrodomain HTRF assay: IC50) was > 1 mM, the “Occupancy difference” value [2] was 0 and the “Refined ligand occupancy (%)” value [2] was 14%. For the same molecule, the “PanDDA run, DMSO background map: 1-BDC” value ([2]; event 1) was 0.07, the 1-BDC [2] was 0.07 and the “Total number of conformations” value [2] was 1. The “2*(1-BDC) (%)” value [2, 10] was 14% and the “X-ray crystallography: Binding site” value [2] was “Adenosine”.
`CC(C)n1nnnc1SCc1c(C(=O)O)sc2cccc(F)c12` [AVI-291] was tested, and the IC50 ([1]; Dose-response, SARS CoV-2 macrodomain HTRF assay, read-out: IC50) was > 1 mM, the inhibition at 200 µM ([1]; Single dose, 200 μM, mean of three technical replicates, read-out: Average % competition) was 41% and the inhibition at 200 µM [1, 7] was 41%. The “Occupancy difference” value [2] was 0, the “Refined ligand occupancy (%)” value [2] was 68% and the 1-BDC [2] was 0.34. The X-ray crystal structure [2] was “TRUE”, the Comment [2] was “Second ligand conformation, not modeled, DMSO x2” and the “PanDDA run, DMSO background map: Hit” value [2, 11] was “TRUE”. The “PanDDA run, DMSO background map: Modeled” value [2, 11] was “TRUE”, the “PanDDA run, DMSO background map: 1-BDC” value ([2]; crystal soak concentration 20 mM, event 1) was 0.34 and the “Pandda run, overall: Hit” value [2, 12] was “TRUE”. The “Pandda run, overall: Modeled” value [2, 12] was “TRUE”, the “Pandda run, overall: Modeling comment” value [2, 12] was “Second ligand conformation, not modeled, DMSO x2” and the “Pandda run, overall: Modeling comment” value [2, 8] was “Duplicate, not modeled”. For the same molecule, the “Pandda run, overall: Hit” value ([2]; crystal soak, soak concentration 10 mM, P43 crystals, TRUE = ligand-binding event identified) was “TRUE”, the “PanDDA run, DMSO background map: Hit” value [2, 8] was “TRUE” and the “PanDDA run, DMSO background map: 1-BDC” value ([2]; crystal soak, soak concentration 10 mM, event 1) was 0.25. The “Total number of conformations” value [2] was 1, the “2*(1-BDC) (%)” value [2, 10] was 68% and the Binding site [2] was “Adenosine”.
For `O[C@@H]1COC[C@H]1Nc1ncnc2[nH]ccc12` [AVI-1443], the IC50 ([1]; SARS CoV-2 macrodomain HTRF assay, dose-response, read-out: IC50) was > 1 mM, the “Pandda run, overall: Modeling comment” value ([2]; crystal soak, soak concentration 5 mM) was “Weak density, not modeled” and the “Pandda run, overall: Hit” value ([2]; crystal soak, soak concentration 5 mM, TRUE = ligand hit) was “TRUE”. For the same molecule, the “PanDDA run, DMSO background map: 1-BDC” value ([2]; soak concentration 5 mM) was 0.05 and 0.04 and the “PanDDA run, DMSO background map: Hit” value ([2]; soak concentration 5 mM) was “TRUE”.
